The values that follow are results of earlier work, collected in patent US12364655B2, “Semisolid oral dispersions comprising active agents” (The Procter & Gamble Company, priority 2019, dated 2025).

Like-named read-outs stand apart in the source and are kept apart here.

The conditions of this data set: from supplier Safety Data Sheet, supplier Product Data Sheet (estimated) or Wikipedia.

For the compound `NC(N)=O.OO` [Urea Peroxide, Urea Hydrogen Peroxide Adduct], the “Solubility in Water (number of parts by weight per 100 parts by weight of water)” value was 80 parts by weight per 100 parts by weight of water. Besides, the “Solubility in Water (number of parts by weight per 100 parts by weight of water)” value (listed as urea peroxide) is 80 parts by weight per 100 parts.
